Structures can show the parent of a compound that is named as a salt.
Target: T1, collagenase obtained from a culture of human synovial fibroblasts (Homo sapiens, UniProt P03956)
T1 construct: endogenous in cells; host or cells: human synovial fibroblasts in culture (conditioned medium)
T1 sequence (P03956 100-469): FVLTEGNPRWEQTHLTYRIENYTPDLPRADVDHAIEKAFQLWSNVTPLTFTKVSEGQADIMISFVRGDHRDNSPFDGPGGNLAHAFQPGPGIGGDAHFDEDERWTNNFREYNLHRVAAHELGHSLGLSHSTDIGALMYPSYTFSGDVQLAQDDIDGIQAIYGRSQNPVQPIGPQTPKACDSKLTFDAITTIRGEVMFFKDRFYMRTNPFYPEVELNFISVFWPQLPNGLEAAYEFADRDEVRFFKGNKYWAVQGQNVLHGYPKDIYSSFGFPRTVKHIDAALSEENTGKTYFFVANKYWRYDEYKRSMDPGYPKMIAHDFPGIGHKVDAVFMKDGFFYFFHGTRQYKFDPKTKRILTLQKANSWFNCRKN
Test: in vitro collagenase inhibiting activity (14C-acetylated collagen type I from rat tail tendons as substrate, microtitre plate assay)
Assay type: biochemical
Conditions: human synovial fibroblast collagenase, trypsin-activated; 14C-acetylated rat tail tendon collagen type I

Structure (SMILES) | IC50 [nM]
CNC(=O)[C@@H](NC(=O)[C@H](CC(C)C)C(CN1C(=O)CCC1=O)C(=O)NO)C(C)(C)C (single isomer, unassigned) [Compound H, N^2-[2(R)-[1(R or S)-(hydroxycarbamoyl)-2-succinimidoethyl]-4-methylvaleryl]-N^1,3-dimethyl-L-valinamide] | 0.5
CNC(=O)[C@@H](NC(=O)[C@H](CC(C)C)C(CCCC(=O)OC)C(=O)NO)C(C)(C)C (single isomer, unassigned) [Compound F, N^2-[2(R)-[1(R or S)-(hydroxycarbamoyl)-4-(methoxycarbonyl)butyl]-4-methylvaleryl]-N^1,3-dimethyl-L-valinamide] | 0.9
CNC(=O)[C@@H](NC(=O)C(CC(C)C)CP(=O)(O)CN1C(=O)c2cccc3c(O)c(Br)cc(c23)C1=O)C(C)(C)C (single isomer, unassigned) [Compound B, N^2-[2(R or S)-[[[(5-bromo-2,3-dihydro-6-hydroxy-1,3-dioxo-1H-benz[d,e]isoquinol-2-yl)methyl](hydroxy)phosphinyl]methyl]-4-methylvaleryl]-N^1,3-dimethyl-L-valinamide] | 4
CNC(=O)[C@@H](NC(=O)[C@H](CC(C)C)C(CCCc1ccccc1)C(=O)NO)C(C)(C)C (single isomer, unassigned) [Compound G, N^2-[2(R)-[1(R or S)-(hydroxycarbamoyl)-4-phenylbutyl]-4-methylvaleryl]-N^1,3-dimethyl-L-valinamide] | 1.9
CNC(=O)C(NC(=O)C(CC(C)C)C(N)P(=O)(O)CN1C(=O)c2cccc3c(O)c(Br)cc(c23)C1=O)C(C)(C)C (single isomer, unassigned) [Compound C, N^2-[2-(R or S)-[[(R)-(amino)-[(5-bromo-2,3-dihydro-6-hydroxy-1,3-dioxo-1H-benz[d,e]isoquinol-2-yl)methyl](hydroxy)phosphinyl]methyl]-4-methylvaleryl]-N^1,3-dimethyl-L-valinamide hydrobromide] | 9
CNC(=O)[C@@H](NC(=O)C(CC(C)C)[C@H](C)C(=O)NO)C(C)(C)C (single isomer, unassigned; isomer 2) [Compound D, N^2-[2(R or S)-[1(S)-(hydroxycarbamoyl)ethyl]-4-methylvaleryl]-N^1,3-dimethyl-L-valinamide (isomer 2)] | 2
CNC(=O)[C@@H](NC(=O)[C@@H](CC(=O)NO)CC(C)C)C(C)(C)C [Compound A, N^2-[2(R)-[Hydroxycarbamoylmethyl]-4-methylvaleryl]-N^1,3-dimethyl-L-valinamide] | 4

— US5304549A, “Amino acid derivatives” (Hoffmann-La Roche Inc., priority 1991, dated 1994)
